The values that follow come from article PMC9589885, “A designed antimicrobial peptide with potential ability against methicillin resistant Staphylococcus aureus” (Frontiers in Microbiology, 2022).

Series [1] relates to Escherichia coli (ATCC25922). It is filed as cell-based. The conditions noted are these: E. coli ATCC25922; broth dilution, 37°C, 16 h. The text has this:
(§1) The standard strain of Staphylococcus aureus (S. aureus, ATCC6538), Escherichia coli (E. coli, ATCC25922), Pseudomonas aeruginosa (P. aeruginosa, ATCC9027), Acinetobacter baumannii (A. baumannii, ATCC19606) and Candida albicans (C. albicans, ATCC/0331) used in this experiment was purchased from the microbial strain collection center of Guangdong Province. The methicillin resistant strain of Staphylococcus aureus (MRSA, SAZ) and clinically isolated antibiotic-resistance strains (SA115775 and SA15192) were clinically isolated from the First Affiliated Hospital of Kunming Medical University. The strains of C. albicans were cultured in 1/3 YM Medium (HB0297-1) + 2/3 RPMI 1640 medium (10-040-CVR, Corning), and other bacterial strains were cultured in Luria-Bertani (LB: 2 g tryptone, 1 g yeast extract, 2 g sodium chloride and 200 ml deionized water) broth.
(§2) Briefly, bacteria strains were diluted and adjusted to the concentration of 2 × 10^5 CFU/ml using RPMI 1640 medium. Samples were prepared as a stock solution in saline, and then diluted to a series of concentrations. 100 μl bacterial suspension and 100 μl samples at the indicated concentration were put together in 96-well plates and incubated at 37°C for 16 h. Finally, an absorbance at 600 nm was measured by a microplate reader to estimate bacterial growth. The MIC was defined as the lowest concentration where the bacterial growth could not be detected completely.
(Broth dilution looks for growth in wells or tubes with falling amounts of substance.)

The subject of series [2] is Acinetobacter baumannii (ATCC19606). Kind of series: MIC, broth dilution. Type of series: cell-based. The conditions noted are these: A. baumannii ATCC19606, 37°C, 16 h.
Text: as §1
(§3) Briefly, bacteria strains were diluted and adjusted to the concentration of 2 × 10^5 CFU/ml using RPMI 1640 medium. Samples were prepared as a stock solution in saline, and then diluted to a series of concentrations. […] Finally, an absorbance at 600 nm was measured by a microplate reader to estimate bacterial growth. The MIC was defined as the lowest concentration where the bacterial growth could not be detected completely.

In series [3] the test system is Pseudomonas aeruginosa (ATCC9027). Kind of series: MIC, broth dilution. Type of series: cell-based. The conditions noted are these: P. aeruginosa ATCC9027, 37°C, 16 h.
Text: as §1, §3

Series [4] concerns S. aureus (ATCC6538). Kind of series: Staphylococcus aureus intraperitoneal infection model. It is filed as in vivo, C57BL/6 mice. The conditions noted are these: CFU 4 h after administration, n = 6. The protocol:
S. aureus (ATCC6538) and methicillin resistant strain of Staphylococcus aureus (MRSA, SAZ) were resuspended by saline with the concentration of 1 × 10^9 CFU/ml. […] 2 h later, samples were intraperitoneally injected with the concentration indicated. After 4 h of administration, mice were sacrificed, blood was collected via retro-orbital bleeding and lungs were harvested and homogenized in 1 ml of saline with a hand tissue grinder. 10-fold serial dilutions of the homogenates and blood were made in pyrogen-free NaCl and equal volumes were plated on LB agar plates and incubated at 37°C. CFU were counted after 24 h.
After 4 h of administration, mice were sacrificed, blood (A,C) and lung (B,D) were collected for the measurement of bacterial loads. Data represent mean ± SD values of six independent experiments. *p < 0.05, **p < 0.01, ***p < 0.001.

Series [5] has as its system S. aureus (ATCC6538). Kind of series: Bacterial killing kinetic assay. Type of series: cell-based, Staphylococcus aureus. The conditions noted are these: 1 ×, 5 × or 10 × MIC; RPMI 1640 with 10% FBS, 37°C; not completely killed in the time given. The protocol: (§4) The bacterial killing kinetic assay was performed according to the previous method with minor modifications ([Wei et al., 2015]). S. aureus (ATCC6538) and methicillin resistant strain of Staphylococcus aureus (MRSA, SAZ) were washed three times with saline and then resuspended with RPMI 1640 medium containing 10% FBS at the concentration of 2 × 10^5 CFU/ml. […] Ten microliter aliquots were extracted at each time point and diluted with fresh broth for 100 times, 100 μl of the dilution was seeded on agar plates. After incubation at 37°C for 24 h, the viable colonies were determined.
(§5) Ten microliter aliquots were extracted at each time point and diluted with fresh broth for 100 times, 100 μl of the dilution was seeded on agar plates. After incubation at 37°C for 24 h, the viable colonies were determined for the killing kinetic analysis. Data represent mean ± SD values of three independent experiments. *p < 0.05, **p < 0.01, ***p < 0.001.

In series [6] the test system is methicillin-resistant S. aureus (MRSA-Z). Kind of series: Bacterial killing kinetic assay. It is filed as cell-based, Staphylococcus aureus. The conditions noted are these: 1 ×, 5 × and 10 × MIC; RPMI 1640 with 10% FBS, 37°C. Here is the method: as §4, §5
Series [7] concerns Staphylococcus aureus (ATCC6538). Kind of series: microbe, parasite or virus in culture. It is filed as cell-based.
Text: as §1, §2

Series [8] has as its system Staphylococcus aureus (SA15192). Kind of series: microbe, parasite or virus in culture. The conditions noted are these: 16 h. Type of series: cell-based.
Text: as §1, §2

The test system of series [9] is methicillin-resistant Staphylococcus aureus (MRSA-Z). Kind of series: microbe, parasite or virus in culture. It is filed as cell-based. The conditions noted are these: 16 h.
Text: as §1, §2

Series [10] concerns Staphylococcus aureus (SA115775). Kind of series: microbe, parasite or virus in culture. It is filed as cell-based. The conditions noted are these: 16 h.
Text: as §1, §2

Series [11] is described as follows: in vitro. The conditions noted are these: human, human plasma.
Protocol: After incubation for 0, 2, 4, 6, 8 and 10 h at 37°C, an aliquot of 10 μl sample was taken for protein precipitation with an equal volume of 4% H3PO4, the mixture was vortex-mixed for 2 min and then centrifuged at 13000 rpm for 15 min at 4°C. 3 μl of supernatant was analyzed using reverse-phase high performance liquid chromatography (RP-HPLC), and the remaining peptide was calculated through the integrated peak area.
Series [12] has as its system HEK293T cells. As to conditions: up to 169.01 μM, 24 h, CCK8, absorbance 450 nm; 3 independent experiments.
For series [13], the system named is human mature red blood cells. As to conditions: 1.32–169.01 μM, 30 min, 37°C, absorbance 540 nm, 3 independent experiments. The protocol: (§6) Hemolysis of testing sample was calculated as the percentage of Triton X-100-induced hemolysis.
as §6

Series [14] relates to Candida albicans (ATCC/0331). Type of series: cell-based. As to conditions: C. albicans ATCC/0331; broth dilution, 37°C, 16 h.
Text: as §1, §2

Series [15] concerns C57BL/6 mice. Kind of series: In vivo acute toxicity assay. Set-up: species or system mouse. The conditions noted are these: single dose 20 mg/kg and 40 mg/kg, intravenous (tail vein), male C57BL/6, n = 10, recorded 12-72 h. Here is the method: Male C57BL/6 mice aged 6–8 weeks were randomly divided into 2 groups with 10 mice in each group. […] Then the death of mice was recorded at 12 h, 24 h, 36 h, 48 h, 60 h and 72 h, respectively.
[picture] Supplementary Figure 1. […] Male C57BL/6 mice aged 6–8 weeks were randomly divided into 2 groups (n = 10). […] Then the death of mice was recorded at 12 h, 24 h, 36 h, 48 h, 60 h and 72 h respectively.

Series [16] relates to S. aureus (ATCC6538, MRSA-Z, SA15192, SA115775). The conditions noted are these: 4.23 mM in 100% human plasma, 0-10 h, 37°C, disk diffusion, zone of inhibition, two independent experiments. Here is the method: Residual antibacterial activity for each incubation time point was evaluated by disk diffusion assay. In brief, bacteria were seeded on nutrient agar plates, 6 mm paper disks were placed on top and 10 μl aliquots of the plasma-peptide mixture was added to the paper disks. After 24 h incubation, the inhibitory zones against S. aureus (ATCC6538, MRSA-Z, SA15192, SA115775) were measured and recorded.
Data represent mean ± SD of two independent experiments.

In brackets after ≈: the same amount, converted by molar mass. Like-named read-outs stand apart in the source and are kept apart here. Residues, ends and D or L forms follow the SMILES beside them. A value given as a limit tells only on which side of the number the result lay.

As to colistin, the MIC in series [1], in series [2] and in series [3] was 0.56 µM in each case.

Consider `CN[C@H](CC(C)C)C(=O)N[C@H]1C(=O)N[C@@H](CC(N)=O)C(=O)N[C@H]2C(=O)N[C@H]3C(=O)N[C@H](C(=O)N[C@H](C(=O)O)c4cc(O)cc(O)c4-c4cc3ccc4O)[C@H](O)c3ccc(c(Cl)c3)Oc3cc2cc(c3O[C@@H]2O[C@H](CO)[C@@H](O)[C@H](O)[C@H]2O[C@H]2C[C@](C)(N)[C@H](O)[C@H](C)O2)Oc2ccc(cc2Cl)[C@H]1O` [Vancomycin, vancomycin], for which, in [4] (GW18 2, 4, 8 mg/kg or vancomycin 2, 4 mg/kg ip 2 h after infection (2 × 10^8 CFU/mouse ip)), the “Dissemination of S. aureus (ATCC6538) from the peritoneal cavity to the blood” value is on record as “significantly suppressed”. Also, the “Dissemination of S. aureus (ATCC6538) from the peritoneal cavity to the lung” value in series [4] (GW18 2, 4, 8 mg/kg or vancomycin 2, 4 mg/kg ip 2 h after infection) is recorded as “significantly suppressed”. Also, the “Time to completely kill the S. aureus” value in [5] is recorded as more than 240 min. In addition, in [6], the “Time to completely kill the MRSA-Z” value turned out to be 240 min. In addition, the MIC in series [7] (Staphylococcus aureus, ATCC6538, 16 h) came to 1.08 µM (≈ 1.57 µg/mL); in [8] (Staphylococcus aureus), 2.16 µM (≈ 3.13 µg/mL); in series [9] (Staphylococcus aureus, MRSA) it was 0.54 µM (≈ 0.783 µg/mL); in series [10] (Staphylococcus aureus), 1.08 µM (≈ 1.57 µg/mL).

For `COc1cccc(OC)c1C(=O)N[C@@H]1C(=O)N2[C@@H]1SC(C)(C)[C@@H]2C(=O)O` [Methicillin, methicillin], the MIC in [7] (Staphylococcus aureus, S. aureus ATCC6538, broth dilution, RPMI 1640, 2 × 10^5 CFU/ml, 37°C, 16 h, absorbance 600 nm, read-out: MIC) is 1.94 µM (≈ 0.738 µg/mL); in [8] (Staphylococcus aureus, clinical isolate SA15192, broth dilution, RPMI 1640, 2 × 10^5 CFU/ml, 37°C, read-out: MIC), 15.5 µM (≈ 5.91 µg/mL); in [9] (Staphylococcus aureus, MRSA-Z, broth dilution, RPMI 1640, 2 × 10^5 CFU/ml, 37°C, absorbance 600 nm, read-out: MIC), more than 124 µM; in series [10] (Staphylococcus aureus, clinical isolate SA115775, broth dilution, RPMI 1640, 2 × 10^5 CFU/ml, 37°C, read-out: MIC) it was 62.1 µM (≈ 23.6 µg/mL).

As to `C[C@H](NC(=O)CNC(=O)[C@H](Cc1c[nH]c2ccccc12)NC(=O)CN)C(=O)N[C@@H](CCCCN)C(=O)N[C@@H](CCCNC(=N)N)C(=O)N[C@@H](Cc1c[nH]c2ccccc12)C(=O)NCC(=O)N[C@@H](CCCCN)C(=O)N[C@@H](CCCNC(=N)N)C(=O)NCC(=O)N[C@@H](Cc1c[nH]c2ccccc12)C(=O)N[C@@H](CCCCN)C(=O)N[C@@H](Cc1c[nH]c2ccccc12)C(=O)N[C@@H](CCCCN)C(=O)N[C@@H](CCCNC(=N)N)C(=O)N[C@@H](Cc1c[nH]cn1)C(=O)N[C@@H](Cc1c[nH]c2ccccc12)C(N)=O` [GW18] (H-GWGAKRWGKRGWKWKRHW-NH2), in series [11], the amount remaining (commonly what is left of the initial amount, in per cent) at 10 h, 4.23 μM came to 57.6%. Besides, the “Cytotoxicity on HEK293T” value in series [12] is “no obvious cytotoxicity”. In series [13], the Hemolytic activity entry is “no obvious hemolytic activity”. The MIC in [1] was 5.28 µM (≈ 12.5 µg/mL); in [14], more than 20 µM; in series [7] (S. aureus ATCC6538, broth dilution, RPMI 1640, 2 × 10^5 CFU/ml, 37°C, 16 h, absorbance 600 nm, read-out: MIC) it was 1.32 µM (≈ 3.12 µg/mL); in series [8] (clinical isolate SA15192, broth dilution, RPMI 1640, 2 × 10^5 CFU/ml, 37°C, read-out: MIC), 1.32 µM (≈ 3.12 µg/mL); in series [9] (MRSA-Z, broth dilution, RPMI 1640, 2 × 10^5 CFU/ml, 37°C, absorbance 600 nm, read-out: MIC), 1.32 µM (≈ 3.12 µg/mL); in [10] (clinical isolate SA115775, broth dilution, RPMI 1640, 2 × 10^5 CFU/ml, 37°C, read-out: MIC), 1.32 µM (≈ 3.12 µg/mL). In addition, the “Acute toxicity (death of mice)” value in series [15] is “no acute toxicity”. Moreover, the “Antibacterial activity against S. aureus after incubation in human plasma” value in series [16] is given as “did not significantly affect”.
